# US6130250A, “Veterinary use of a pleuromutilin derivative” (priority 1996, dated 2000)
# Counter-ions that a name gives are not always drawn.
# Columns and labels:
# Mycoplasma gallisepticum [1] = test: Challenge study, prevention of Mycoplasma gallisepticum infection; format: in vivo, male broiler chickens; details: for prevention of clinical signs and mortality: tiamulin three doses
# Experimental: Groups of male broiler chickens are infected with a virulent strain of Mycoplasma gallisepticum (MG) and each group medicated respectively with one of the following: valnemulin (concentrations of 0.00312, 0.00625, 0.0125 and 0.025%), tiamulin (0.00625, 0.0125 and 0.025%), and tylosin (0.05%). Infection is effected on day 2 by injection of 0.1 ml of Mycoplasma gallisepticum culture containing approximately 10^6 cfu of viable organisms into each lung (Jordan, F. T. W., The Veterinary Record 127 [1990] 502) and medication is commenced within an hour of infection and continued for three consecutive days. There is also an infected untreated group and an uninfected group.
# S. hyodysenteriae [2] = test: Challenge trial: prevention of swine dysentery; format: in vivo, pigs; details: for pigs with S. hyodysenteriae isolated: rectal swabs
# Experimental: Two trials were effected where valnemulin fed at various inclusion levels is compared to tiamulin for the prevention of swine dysentery. The severity of disease is assessed by the evidence of clinical disease as determined by clinical scores for body condition, faeces consistency and composition. The excretion of Serpulina hyodysenteriae in faeces, lesions at post-mortem examination, growth rate and feed conversion ratio are also determined.
# In the first trial valnemulin hydrochloride fed at 20, 30 and 40 ppm is compared with tiamulin hydrogen fumarate fed at 30 ppm and with unmedicated controls. Five groups of 9 (5 to 6 week old) conventionally reared pigs are used for each treatment group. The pigs are fed unmedicated food for 14 days, then challenged with the standard strain of S. hyodysenteriae (P18A). Challenge is by the oral route on two consecutive days. The medicated feed is introduced on the day after the second challenge. In the second trial a similar procedure is followed except that 4 groups of approximately 9 pigs were used. These are fed valnemulin hydrochloride at 5, 10 and 20 ppm and compared to unmedicated controls. In this trial the pigs used are from an outdoor reared herd and are challenged with a strain of S. hyodysenteriae isolated from an outdoor herd and previously shown to be capable of causing swine dysentery. In both trials the evidence of clinical disease is assessed daily and a clinical score assigned, rectal swabs are taken twice weekly for isolation of S. hyodysenteriae and all pigs are weighed at regular intervals. Food intake is also recorded. A post-mortem examination is carried out 21 days after challenge and the large intestine examined for the presence of lesions. Mucosal scrapings are also taken from 4 areas in the large intestine and cultured for S. hyodysenteriae.
# S. hyodysenteriae [3] = details: cited from earlier work
# Serpulina hyodysenteriae = test: MIC determination on agar, 10 S. hyodysenteriae strains; format: cell-based
# Mycoplasma gallisepticum [4] = test: Challenge study, treatment of Mycoplasma gallisepticum infection; format: in vivo, male broiler chicks; details: for mortality: valnemulin all three concentrations, tiamulin 0.05%
# Description: Groups of male broiler chicks are infected with a virulent strain of Mycoplasma gallisepticum (MG) and each group medicated respectively with valnemulin at a concentration of 0.0125%, 0.025%, 0.05%, tiamulin at the same concentration, tylosin 0.05% and a […], spectinomycin combination (Linco-Spectin) 0.083%. There is also one infected group left untreated and an uninfected group. The chicks are infected at two days of age by the injection of 3.4×10^5 organisms into each lung. Medication in the drinking water is commenced 24 hours later for three successive days except for Linco-Spectin with which treatment was continued for 5 days.
# Mycoplasma hyosynoviae = test: MIC assay, 7 field isolates of Mycoplasma hyosynoviae; format: cell-based; details: for MIC: Mycoplasma, 7 field isolates
# Experimental: Tissue samples are obtained from the lungs of pigs from various enzootic pneumonia of pigs (EPP)--affected herds. Samples are shipped on dry ice for culture. Four isolates from lung samples initially isolated for recovery of Mycoplasma hyopneumoniae were reisolated for Mycoplasma hyosynoviae after it had been noted from the lung samples submitted (re-stored at -70° C.), during culture for M. hyopneumoniae, that some samples yielded luxuriant growth of colonies having the typical morphology of Mycoplasma hyosynoviae. Three further isolates were recovered from other lung samples provided. All isolates were serologically identified by disc growth inhibition with specific rabbit antiserum raised against Mycoplasma hyosynoviae. A commerically available solid medium (Mycoplasma Experience Ltd.) is used to isolate M. hyosynoviae from lung tissue. A liquid medium (Mycoplasma Experience Ltd.) containing phenol red and arginine (pH 7.0) is used for the MIC assay.
# Stock solutions of test compound are prepared at 1 mg/ml concentration in deionised water, sterilised by filtration through 0.2μ pore size membrane filters (Sartorius Minisart, N) and stored at -20° C. For use in the MIC tests the stock solutions are diluted in liquid medium to double the final concentrations required. MIC tests are carried out according to the method of Tanner and Wu, Avian Diseases 36 (1992) 714-717. Actively growing challenge cultures are prepared either from 1 ml aliquots of broth cultures stored at -70° C. or from cultures stored on agar at -70° C. The challenge cultures are diluted to give a target titre of 10^3 to 10^5 colour changing units/ml. 0.1 ml aliquots of challenge inocula are mixed with 0.1 ml aliquots of antibiotic dilution in microtitre wells. Each microtitre plate contains uninoculated media at pH 7.6 (end point control) and antibiotic-free inoculated challenge controls. All plates are sealed with adhesive film and incubated aerobically at 36° C. MICs are recorded when the colour change in the challenge control wells matches the pH of the end point control. The MIC is the lowest concentration showing no colour change.
# Lawsonia intracellularis = test: Challenge study: porcine proliferative enteropathy; format: in vivo, pigs
# [5] = tylosin 0.05%, tiamulin, valnemulin all but the lowest dose
# [6] = valnemulin 0.0125 and 0.025%, tylosin 0.05%
# [7] = first trial, valnemulin 20 and 40 ppm
structure (smiles),measurement,setting,value
C=C[C@]1(C)C[C@@H](OC(=O)CSCCN(CC)CC)[C@]2(C)[C@H](C)CC[C@]3(CCC(=O)[C@H]32)[C@@H](C)[C@@H]1O [tiamulin hydrogen fumarate],recovery of MG during life or at necropsy,"Mycoplasma gallisepticum [1]; tiamulin highest dose (0.025%), tylosin 0.05%",not recovered
same,weight gain,Mycoplasma gallisepticum [1]; [5],next but significantly less (p<0.05)
same,prevention of clinical signs and mortality,Mycoplasma gallisepticum [1]; [6],equally satisfactory
same,pigs with S. hyodysenteriae isolated,"S. hyodysenteriae [2]; first trial, tiamulin 30 ppm",2
same,isolation of S. hyodysenteriae from mucosal scrapings,"S. hyodysenteriae [2]; first trial, tiamulin 30 ppm",isolated from mucosal scrapings taken from all of these affected animals
same,post-mortem lesions in pigs with clinical signs,"S. hyodysenteriae [2]; first trial, tiamulin 30 ppm",typical lesions of swine dysentery
same,post-mortem lesions in pigs without previous clinical signs,"S. hyodysenteriae [2]; first trial, tiamulin 30 ppm",one pig
same,animals with clinical disease,"S. hyodysenteriae [2]; first trial, tiamulin 30 ppm in feed",2 out of 9
same,mean clinical score per pig,"S. hyodysenteriae [2]; first trial, tiamulin 30 ppm, control 36",6
same,prevention of swine dysentery in words,S. hyodysenteriae [2]; tiamulin 30 ppm in feed,did not prevent swine dysentery but reduced the incidence of disease
same,elimination of S. hyodysenteriae,"S. hyodysenteriae [3]; tiamulin 35 and 40 ppm, Taylor 1980",eliminate S. hyodysenteriae from faeces but not prevent the recovery from mucosal scrapings
same,treatment of swine dysentery,"S. hyodysenteriae [3]; tiamulin 100 ppm, less severely affected animals, Taylor 1982",successfully used under experimental conditions
same,number of strains with MIC 0.125 μg/ml,Serpulina hyodysenteriae; 10 S. hyodysenteriae strains,6
same,number of strains with MIC 0.250 μg/ml,Serpulina hyodysenteriae; 10 S. hyodysenteriae strains,1
same,number of strains with MIC 0.500 μg/ml,Serpulina hyodysenteriae; 10 S. hyodysenteriae strains,1
same,number of strains with MIC 1 μg/ml,Serpulina hyodysenteriae; 10 S. hyodysenteriae strains,2
same,lesions,Mycoplasma gallisepticum [4]; tiamulin and tylosin,only a few
same,mortality,Mycoplasma gallisepticum [4],no more than 5%
same,MIC,Mycoplasma hyosynoviae,2.5 to 25 ng/mL
"C=C[C@]1(C)C[C@@H](OC(=O)CSC(C)(C)CNC(=O)[C@H](N)C(C)C)[C@]2(C)[C@H](C)CC[C@]3(CCC(=O)[C@H]32)[C@@H](C)[C@@H]1O [valnemulin hydrochloride, 14-O-[1-[(R)-2-amino-3-methylbutyrylamino]-2-methylpropan-2-ylthioacetyl]mutilin]",weight gain,Mycoplasma gallisepticum [1]; [5],next but significantly less (p<0.05)
same,prevention of MG infection vs reference compounds,Mycoplasma gallisepticum [1]; valnemulin 0.0125 and 0.025%,as effective as the reference compounds
same,prevention of clinical signs and mortality,Mycoplasma gallisepticum [1]; [6],equally satisfactory
same,lesions (frequency and severity),"Mycoplasma gallisepticum [1]; valnemulin 0.0125 and 0.025%, tiamulin, tylosin 0.05%",then the two higher doses of valnemulin
same,effect on lesions,"Mycoplasma gallisepticum [1]; valnemulin 2 lower doses (0.00312, 0.00625%)",less effective
same,birds with MG isolated,Mycoplasma gallisepticum [1]; valnemulin highest dose (0.025%),only one bird
same,weight gain,Mycoplasma gallisepticum [1]; valnemulin lowest dose,lowest weight gains
same,pigs with S. hyodysenteriae isolated,"S. hyodysenteriae [2]; first trial, valnemulin 30 ppm",2 pigs
same,isolation of S. hyodysenteriae,S. hyodysenteriae [2]; [7],not isolated
same,post-mortem lesions,S. hyodysenteriae [2]; [7],Lesions were not seen
same,evidence of disease,"S. hyodysenteriae [2]; first trial, valnemulin 20 and 40 ppm in feed",Evidence of disease was not seen
same,isolation of S. hyodysenteriae from mucosal scrapings,"S. hyodysenteriae [2]; first trial, valnemulin 30 ppm",not isolated from mucosal scrapings
same,pigs with post-mortem lesions,"S. hyodysenteriae [2]; first trial, valnemulin 30 ppm",One pig
same,pigs with clinical disease,"S. hyodysenteriae [2]; first trial, valnemulin 30 ppm in feed",1 pig
same,inclusion rate down to which effective in preventing swine dysentery,S. hyodysenteriae [2]; in feed,10 ppm
same,animals affected,"S. hyodysenteriae [2]; second trial, 5 ppm",5 out of 10
same,p of mean clinical score vs controls,"S. hyodysenteriae [2]; second trial, 5 ppm",< 0.005
same,p of numbers affected vs controls,"S. hyodysenteriae [2]; second trial, 5 ppm",< 0.05
same,"p, heavier than controls at end of trial","S. hyodysenteriae [2]; second trial, 5 ppm",0.05
same,other animals with lesions and S. hyodysenteriae in mucosal scrapings,"S. hyodysenteriae [2]; second trial, 5 ppm, no clinical signs",2 animals
same,pigs with post-mortem lesions,"S. hyodysenteriae [2]; second trial, 5 ppm, of 5 pigs with previous signs, S. hyodysenteriae not isolated",2
same,pigs with S. hyodysenteriae isolated from rectal swabs,"S. hyodysenteriae [2]; second trial, 5 ppm, of the 5 animals affected",2
same,mean clinical score,"S. hyodysenteriae [2]; second trial, 5 ppm, control 77",11
same,first clinical signs after challenge,"S. hyodysenteriae [2]; second trial, 5 ppm, control 5 days",8 days
same,"p, heavier than controls at end of trial","S. hyodysenteriae [2]; second trial, 10 and 20 ppm",< 0.05
same,clinical signs of disease,"S. hyodysenteriae [2]; second trial, 10 or 20 ppm",not seen
same,isolation of S. hyodysenteriae,"S. hyodysenteriae [2]; second trial, 10 or 20 ppm",not isolated
same,post-mortem lesions,"S. hyodysenteriae [2]; second trial, 10 or 20 ppm",Lesions were not seen
same,prevention of swine dysentery in words,S. hyodysenteriae [2]; valnemulin 5 ppm in feed,did not completely prevent clinical disease or the shedding of spirochaetes
same,prevention compared with tiamulin,S. hyodysenteriae [2]; valnemulin 10 ppm in feed,clearly more effective than Tiamulin at 30 ppm
same,prevention or treatment of disease in words,Lawsonia intracellularis; low actual doses,prevented or treated the disease in a large proportion of challenged pigs
same,pigs with no visible lesions of proliferative enteropathy,"Lawsonia intracellularis; prevention group, 25/75 ppm from two days before challenge",3 of 7
same,pigs with no visible lesions of proliferative enteropathy,"Lawsonia intracellularis; treatment group, 25/75 ppm from seven days after challenge",5 of 7
same,number of strains with MIC 0.0156 μg/ml,Serpulina hyodysenteriae; 10 S. hyodysenteriae strains,2
same,number of strains with MIC 0.0312 μg/ml,Serpulina hyodysenteriae; 10 S. hyodysenteriae strains,4
same,number of strains with MIC 1 μg/ml,Serpulina hyodysenteriae; 10 S. hyodysenteriae strains,1
same,MIC times less than those of tiamulin,Serpulina hyodysenteriae; S. hyodysenteriae strains,2-32 times
same,susceptibility of S. hyodysenteriae strains,Serpulina hyodysenteriae; all strains,highly susceptible
same,overall efficacy vs comparators,Mycoplasma gallisepticum [4]; valnemulin 0.025% and 0.05% in drinking water,at least as good as or better than tiamulin at 0.05% or tylosin at 0.05% and very much better than Linco-Spectin
same,recovery of Mycoplasma at 23 days,"Mycoplasma gallisepticum [4]; valnemulin 3 groups, tylosin 0.05%",not recovered
same,mortality,Mycoplasma gallisepticum [4],no more than 5%
same,weight gains,Mycoplasma gallisepticum [4]; valnemulin at all concentrations,higher than for the tiamulin treated groups and equal to the tylosin group
same,lesions,Mycoplasma gallisepticum [4]; valnemulin highest and lowest doses,Lesions were not seen
same,MIC,Mycoplasma hyosynoviae,0.1 to 0.5 ng/mL
same,sensitivity of isolates in words,Mycoplasma hyosynoviae; seven field isolates,much higher than for the other two compounds
